The record followed here is patent US8722663B2, “Di-substituted pyridine derivatives as anticancers” (Otsuka Pharmaceutical Co., Ltd., priority 2010, dated 2014).

For data set [1], the system named is bicalutamide resistant human prostate cancer cell line established from LNCaP.FGC (LNCaP-Bic). In words: Growth inhibition of LNCaP-Bic cells, WST-8 assay. It counts as cell-based. The following applies: 120 h, 5 days with test compound. As to the method:
(§1) The growth inhibition on a bicalutamide resistant human prostate cancer cell line established from LNCaP.FGC (LNCaP-Bic) (Hobisch A, et al. Prostate. 2006; 66(4):413-20.) was determined by a WST-8 assay according to the method of Singh A K, et al. (Cancer Lett. 1996 Oct. 1; 107(1): 109-15.). In this method, LNCaP-Bic cells were seeded in RPMI 1640 medium containing 10% fetal bovine serum in a 96-well microplate and incubated at 37° C. for 24 hours in the presence of 5% carbon dioxide. Then, the test compound was added and the cells were incubated for another 5 days. After incubation, a 15-μL volume of WST-8 (2-(2-methoxy-4-nitrophenyl)-3-(4-nitrophenyl)-5-(2,4-[…])-2H-tetrazolium, monosodium salt) was added. After the incubation for the time, the color reaction was stopped by adding 15 μL of 1% SDS (sodium dodecyl sulfate) solution and the optical density was determined at the measurement wavelength of 450 nm and the reference wavelength of 630 nm, and the difference was calculated. The cell growth activity in each well was defined as the value determined by subtracting the OD in the control well not containing cells (the difference in absorbance between 450 nm and 630 nm) from that in the test well.
(§2) The 50% inhibitory concentration (IC50 (nM)) of the test compound was determined by comparing the cell growth activity in the well containing the test compound with that of the control not containing the test compound.
(Formazan colour is commonly taken as a measure of viable cells.)

Data set [2] deals with human prostate (carcinoma) cell line (LNCaP.FGC). In words: Growth inhibition of LNCaP.FGC cells, WST-8 assay. The format is cell-based. The following applies: 120 h, 5 days with test compound. The procedure:
as §1, §2
The growth inhibition on a human prostate (carcinoma) cell line (LNCaP.FGC) (van Bokhoven A, et al. Prostate. 2003; 57(3):205-25.) was also determined by the above method.

Data set [3] relates to human prostate (adenocarcinoma) cell line (VcaP). In words: Growth inhibition of VcaP cells, WST-8 assay. It counts as cell-based. The following applies: 120 h, 5 days with test compound. As to the method: as §1, §2
The growth inhibition on a human prostate (adenocarcinoma) cell line (VcaP) (Korenchuk S, et al. In Vivo. 2001; 15(2):163-8.) was also determined by the above method.

Data set [4] has as its system human prostate (carcinoma) cell line (DU 145). In words: Growth inhibition of DU 145 cells, WST-8 assay. The format is cell-based. As to conditions: 120 h, 5 days with test compound. As to the method: as §1, §2
The growth inhibition on a human prostate (carcinoma) cell line (DU 145) (van Bokhoven A, et al. Prostate. 2003; 57(3):205-25.) was also determined by the above method.

Data set [5] has as its system human prostate (adenocarcinoma) cell line (PC-3). In words: Growth inhibition of PC-3 cells, WST-8 assay. It counts as cell-based. As to conditions: 120 h, 5 days with test compound. The procedure: as §1, §2
The growth inhibition on a human prostate (adenocarcinoma) cell line (PC-3) (van Bokhoven A, et al. Prostate. 2003; 57(3):205-25.) was also determined by the above method.

For data set [6], the system named is human hepatic cancer cell line (HuH-7). In words: Growth inhibition of HuH-7 cells, sulforhodamine B method. It counts as cell-based. The following applies: Homo sapiens, 120 h, 5 days with test compound. The procedure: (§3) Growth inhibition of a human breast cancer cell line (MDA-MB-468) was determined by the sulforhodamine B method based on the method of Skehan P. et al. (J Natl Cancer Inst. 1990 Jul. 4; 82(13): 1107-12). In the study, MDA-MB-468 cells were seeded on DMEM medium containing 10% fetal bovine serum in a 96-well microplate. After 24-h incubation at 37° C. in the presence of 5% carbon dioxide, the test compound was added and the cells were incubated for another 5 days. After incubation, a trichloroacetic acid solution was added to yield the final concentration of 10% and the cells were left to stand at 4° C. for 1 hour to fix. Then, the cells were washed with water to remove the medium and trichloroacetic acid and dried in the air. The dried cells were stored at 4° C. until they were stained with sulforhodamine B. To each well, 1% acetic acid solution containing 0.4% sulforhodamine B was added and left to stand for 20 to 30 minutes at room temperature. After discarding the supernatant, each well was washed with 1% acetic acid solution, and 10 mM Tris([…]) solution was added while stirring to elute the dye taken into the cells. Then, the optical density was determined at the measurement wavelength of 492 nm and the reference wavelength of 690 nm, and the difference was calculated. The cell growth activity in each well was defined as the value determined by subtracting the OD in the control well not containing cells (the difference in absorbance between 492 nm and 690 nm) from that in the test well.
as §2
The growth inhibition on a human hepatic cancer cell line (HuH-7) was also determined by the above method.
(In general: The SRB assay estimates cell density from bound dye.)

Data set [7] concerns human breast cancer cell line (MDA-MB-468). The data set can be described thus: Growth inhibition of MDA-MB-468 cells, sulforhodamine B method. It counts as cell-based. As to conditions: 120 h, 5 days with test compound. As to the method:
as §3, §2

By IC50 is commonly meant the point on the concentration scale where inhibition reaches its midpoint. One may read the melting point as the temperature of the solid-liquid transition.

Where a name gives a salt, the structure may show the parent alone.

With `Cc1cc(/C=C/C(=O)N2CCN(Cc3ccc(CCOc4ccc(Cl)cc4)cc3)CC2)cc(C)c1Oc1ccc(OCc2ccc(C#N)cc2)cn1.Cl` [Example 558, 4-{[(6-{4-[(E)-3-(4-{4-[2-(4-Chlorophenoxy)ethyl]benzyl}piperazin-1-yl)-3-oxoprop-1-en-1-yl]-2,6-dimethylphenoxy}pyridin-3-yl)oxy]methyl}benzonitrile hydrochloride], the melting point lay within 219.7 to 220.7 °C. Moreover, in data set [1], the IC50 is less than 10 nM. Further, the IC50 in data set [2] was less than 10 nM. In data set [3], this molecule showed an IC50 of less than 10 nM. In data set [4], this molecule showed an IC50 of less than 10 nM. In data set [5], this molecule registered an IC50 of less than 10 nM. The molecule further yielded an IC50 in data set [6] of less than 10 nM.
Regarding `Cc1cc(/C=C/C(=O)N2CCN(Cc3ccc(CCOc4ccc(C(C)C)cc4)cc3)CC2)cc(Cl)c1Oc1ccc(OCc2ccccc2F)cn1.Cl` [Example 454, (E)-3-[3-Chloro-4-({5-[(2-fluorobenzyl)oxy]pyridin-2-yl}oxy)-5-methylphenyl]-1-[4-(4-{2-[4-(propan-2-yl)phenoxy]ethyl}benzyl)piperazin-1-yl]prop-2-en-1-one hydrochloride], the melting point was in the range of 188 to 189.5 °C. In data set [1], this molecule registered an IC50 of less than 10 nM. The IC50 in data set [2] was less than 10 nM. For the same molecule, the IC50 in data set [3] is less than 10 nM. The molecule also had an IC50 in data set [4] of less than 10 nM. The molecule further gave an IC50 in data set [5] of less than 10 nM. Moreover, in data set [7], the IC50 was less than 10 nM. In data set [6], the IC50 was less than 10 nM.
As to `Cc1ccccc1COc1ccc(Oc2c(C)cc(/C=C/C(=O)N3CCN(Cc4ccc(CCOc5ccc(F)cc5)cc4)CC3)cc2Cl)nc1.Cl` [Example 448, (E)-3-[3-Chloro-5-methyl-4-({5-[(2-methylbenzyl)oxy]pyridin-2-yl}oxy)phenyl]-1-(4-{4-[2-(4-fluorophenoxy)ethyl]benzyl}piperazin-1-yl)prop-2-en-1-one hydrochloride], the melting point was in the range of 210.3 to 210.6 °C. In addition, the IC50 in data set [1] was less than 10 nM. Besides, in data set [2], the IC50 was less than 10 nM. This molecule also returned an IC50 in data set [3] of less than 10 nM. The molecule also came in with an IC50 in data set [4] of less than 10 nM. The same molecule returned an IC50 in data set [5] of less than 10 nM. For the same molecule, in data set [7], the IC50 was less than 10 nM. Further, in data set [6], the IC50 was less than 10 nM.
In the case of `Cc1cc(/C=C/C(=O)N2CCN(Cc3ccc(CCOc4ccc(C(C)C)cc4)cc3)CC2)cc(C)c1Oc1ccc(OCc2cscn2)cn1` [Example 600, (E)-3-(3,5-Dimethyl-4-{[5-(1,3-thiazol-4-ylmethoxy)pyridin-2-yl]oxy}phenyl)-1-[4-(4-{2-[4-(propan-2-yl)phenoxy]ethyl}benzyl)piperazin-1-yl]prop-2-en-1-one hydrochloride], the IC50 in data set [1], in data set [2], in data set [3], in data set [4], in data set [5] and in data set [6] was less than 10 nM in each case.
`Cc1cc(/C=C/C(=O)N2CCN(Cc3ccc(CCOc4ccc(C(C)C)cc4)cc3)CC2)cc(Cl)c1Oc1ccc(OCc2ccccc2Cl)cn1` [Example 608, (E)-3-[3-Chloro-4-({5-[(2-chlorobenzyl)oxy]pyridin-2-yl}oxy)-5-methylphenyl]-1-[4-(4-{2-[4-(propan-2-yl)phenoxy]ethyl}benzyl)piperazin-1-yl]prop-2-en-1-one hydrochloride]: the IC50 in data set [1], in data set [2], in data set [3], in data set [4], in data set [5] and in data set [7] was less than 10 nM throughout. In addition, in data set [6], the IC50 was less than 10 nM.
